Assay results as given in patent US11707503B2, “Modulators of complement activity” (Ra Pharmaceuticals, Inc., priority 2015, dated 2023).
Starred links: 1 amine or outer side, 2 acyl side, 3 side chain; linkers in the order of their positions; H or OH if unused. Positions of bridges follow the written chain, without caps; N, C: chain ends. Non-standard residues stand in square brackets, D forms with d. Residues, ends and D or L forms follow the SMILES beside them. Trp(7-aza) = N[C@@H](Cc1c[nH]c2ncccc12)C(=O)O; pXylylene = c1cc(C[*:2])ccc1C[*:1]; Phg = N[C@H](C(=O)O)c1ccccc1; NMeS = CN[C@@H](CO)C(=O)O; Nva = CCC[C@H](N)C(=O)O

Tests used:
[1] = Compound stability in human plasma; format: in vitro ADME
Description: Compounds were assayed for stability in human plasma under the following conditions. Human plasma was obtained from Bioreclamation (Westbury, N.Y.) and collected in sodium heparin. Plasma was adjusted to pH 7.4. DMSO stocks at 10 mM concentration were prepared for the test compounds. Aliquots of the DMSO solutions were dosed into 1 mL of plasma, which had been pre-warmed to 37° C., at a final test compound concentration of 10 μM. The vials were kept in a benchtop THERMOMIXER® (Eppendorf, Hauppauge, N.Y.) for the duration of the experiment. Aliquots (100 μL) were taken at each timepoint and added to a 96-well plate that had been pre-filled with 300 μL of an acetonitrile solution containing mixture of the internal standards (metoprolol, propranolol and warfarin each at 500 ng/mL). […] Aliquots of the supernatant were removed and analyzed by LC-HRAMS.

[2] = biological target: T1, C5 (Homo sapiens, UniProt P01031); assay: Competitive fluorescence polarization (FP) binding assay with probe R3076; set-up: purchased Complement Technology, Tyler, Tex
Description: FP was used for screening competitive polypeptide inhibitors of the C5 protein. […] The BODIPY-TMR dye attached to the C-terminal lysine of the protein and the subsequent labeled probe was purified by HPLC.
Human C5 protein was diluted to 200 nM in assay buffer, composed of TBS (EMD Millipore, Billerica, Mass.)+0.005% Triton-X (Sigma, Saint Louis, Mo.). 10 μl of assay buffer was added to all wells of a black, non-binding, 384-well assay plate (Greiner, Monroe, N.C.) and 10 μl of diluted C5 protein stock was added to experimental and designated control wells.
Probe R3076 (SEQ ID NO: 40) was diluted 1 to 10 in DMSO (Life Technologies, Grand Island, N.Y.) and 30 μl of that stock was diluted in 3 ml of assay buffer to yield a 100 nM stock. 10 μl of this working stock was then added to each well in the assay plate. The assay plate was incubated at room temperature, protected from light, for 20 minutes to allow binding to reach equilibrium.
Test articles listed in Table 7 were subsequently diluted in DMSO then assay buffer, comprising 10 2-fold dilutions and were then added to the assay plate in triplicate, rapidly. The assay plate was then incubated in the Paradigm (Molecular Devices, Sunnyvale, Calif.) plate reader for 60 minutes at 25° C.
After incubation for 60 minutes, the plate was read using the Paradigm FP protocol (Molecular Devices, Sunnyvale, Calif.) and raw polarization values were imported into Graphpad Prism.

[3] = system: rat C5; assay: Ex vivo hemolysis assays, rat PK study; format: cell-based; settings: rat plasma after dosing
[4] = system: primate C5 protein; assay: Ex vivo hemolysis assay with cynomolgus plasma; format: cell-based, cynomolgus monkey
Description: At each time-point, the hemolytic activity was determined as an indicator of active serum complement (see FIG. 4).

[5] = 3 mg/kg IV, cynomolgus monkey
[6] = Pharmacokinetic studies in rat (IV and SC); settings: SC 30 mg/kg, combined R3152 and R3201
Description: In the figure, circles represent concentrations obtained after SC dose and squares represent concentrations obtained after IV dose.
Blood samples were collected at indicated time points, processed into plasma, and analyzed for the indicated compound by LC-MS. […] Blood samples were collected at indicated time points, processed into plasma, and analyzed for the indicated compound by LC-MS.

[7] = system: rat C5; assay: Binding to rat C5 (statement)
[8] = biological target: T1, C5; assay: Human hemolysis assay (RBC lysis assay using complete human sera); format: cell-based; set-up: with complete human sera (Complement Technology, Tyler Tex.) and polypeptides; tissue Complement Technology, Tyler Tex; host or cells: complete human serum; settings: compounds tested in in vivo studies; average IC50, assay and unit inferred
Description: Polypeptides listed in Table 3, as well as their optimized derivatives (see Table 4) were assessed for inhibitor activity using a red blood cell hemolysis assay. […] Human sera was rapidly thawed at 37° C. and then stored on ice until diluted into GVB++. Ten 6-fold serial dilutions of polypeptides (10 mM stock, DMSO) were performed in DMSO and then added to buffer. 50 μl of each polypeptide dilution was combined with sera and 100 μl of cells in individual wells of a 96-well tissue culture-treated clear microtitre plate (USA Scientific, Ocala, Fla.) and resuspended by pipetting. Samples were incubated at 37° C. for one hour. […] Data was fit with a log-logit formula producing a dose-response curve and IC50. As used herein, the term “IC50” refers to the half maximal inhibitory concentration, a value used to indicate the amount of the inhibitor needed to reduce a given reaction or process by half.
The human constant light chain kappa and IgG2 constant heavy chain sequences were used for the constants regions of the antibody. This antibody was expressed from human embryonic kidney cells (HEK293) and purified by Protein A affinity chromatography. […] Human sera was rapidly thawed at 37° C. and then stored on ice until diluted into GVB++. Ten 6-fold serial dilutions of each compound (10 mM stock, DMSO) were performed in DMSO and then added to buffer. 50 μl of each compound dilution was combined with sera and 100 μl of cells in individual wells of a 96-well tissue culture-treated clear microtitre plate (USA Scientific, Ocala, Fla.) and resuspended by pipetting. Samples were incubated at 37° C. for one hour. […] Data was fit with a log-logit formula producing a dose-response curve and IC50 (see FIG. 11A).

T1 sequence (P01031 678-1676 limits assumed): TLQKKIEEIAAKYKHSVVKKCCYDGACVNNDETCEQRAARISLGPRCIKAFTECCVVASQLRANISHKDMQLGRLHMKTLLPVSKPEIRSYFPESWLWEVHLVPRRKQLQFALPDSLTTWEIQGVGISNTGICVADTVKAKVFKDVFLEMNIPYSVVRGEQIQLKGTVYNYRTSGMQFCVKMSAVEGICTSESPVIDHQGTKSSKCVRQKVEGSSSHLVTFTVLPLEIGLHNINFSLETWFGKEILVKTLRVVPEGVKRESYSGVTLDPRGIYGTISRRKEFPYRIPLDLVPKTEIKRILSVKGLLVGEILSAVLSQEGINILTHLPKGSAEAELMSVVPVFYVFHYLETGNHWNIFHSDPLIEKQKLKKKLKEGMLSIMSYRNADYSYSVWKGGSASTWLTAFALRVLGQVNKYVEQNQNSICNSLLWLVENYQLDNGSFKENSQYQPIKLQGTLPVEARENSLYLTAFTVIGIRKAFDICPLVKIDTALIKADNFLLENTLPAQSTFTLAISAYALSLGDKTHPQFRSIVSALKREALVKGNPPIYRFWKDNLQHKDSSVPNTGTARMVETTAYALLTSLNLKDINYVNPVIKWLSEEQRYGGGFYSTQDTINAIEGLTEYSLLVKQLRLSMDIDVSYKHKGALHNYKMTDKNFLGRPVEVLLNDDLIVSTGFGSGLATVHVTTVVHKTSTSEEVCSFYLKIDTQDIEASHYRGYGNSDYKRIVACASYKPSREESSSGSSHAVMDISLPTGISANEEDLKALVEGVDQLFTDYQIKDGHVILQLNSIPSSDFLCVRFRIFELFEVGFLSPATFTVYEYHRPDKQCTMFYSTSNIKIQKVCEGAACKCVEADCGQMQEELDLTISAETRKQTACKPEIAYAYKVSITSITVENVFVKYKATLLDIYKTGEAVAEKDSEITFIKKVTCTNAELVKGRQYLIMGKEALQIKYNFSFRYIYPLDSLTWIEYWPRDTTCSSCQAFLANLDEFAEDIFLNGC
T1 sequence (P01031 19-673 limits assumed): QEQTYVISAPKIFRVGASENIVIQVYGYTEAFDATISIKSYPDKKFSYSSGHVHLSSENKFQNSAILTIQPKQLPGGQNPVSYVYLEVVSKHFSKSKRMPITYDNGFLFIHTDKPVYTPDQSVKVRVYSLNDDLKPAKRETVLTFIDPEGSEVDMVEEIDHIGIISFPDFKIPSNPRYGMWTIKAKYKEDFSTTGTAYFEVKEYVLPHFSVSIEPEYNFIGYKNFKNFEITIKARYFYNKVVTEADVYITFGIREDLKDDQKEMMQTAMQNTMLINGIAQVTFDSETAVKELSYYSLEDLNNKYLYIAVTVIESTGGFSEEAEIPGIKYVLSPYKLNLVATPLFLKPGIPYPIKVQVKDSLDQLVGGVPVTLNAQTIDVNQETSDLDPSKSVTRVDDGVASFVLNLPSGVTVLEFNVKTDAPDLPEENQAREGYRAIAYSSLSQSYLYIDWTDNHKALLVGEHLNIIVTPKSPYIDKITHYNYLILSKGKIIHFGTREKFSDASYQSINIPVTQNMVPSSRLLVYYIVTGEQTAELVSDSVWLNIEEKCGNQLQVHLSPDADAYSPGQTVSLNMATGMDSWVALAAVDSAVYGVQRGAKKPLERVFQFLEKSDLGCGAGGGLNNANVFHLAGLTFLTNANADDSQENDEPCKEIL

Row | SMILES | stability in human plasma in words [1] | Percent remaining at time 0 hrs ([1]; 37° C., 10 μM, 0 hrs) [%] | competition for / affinity for C5 in words [2] | inhibitory activity in ex vivo hemolysis assays [3] | time after dosing at which hemolytic activity returned to normal levels ([4]; 3 mg/kg IV, plasma levels fell below 100 ng/ml) [h] | plasma concentration with clear inhibition of complement-mediated hemolysis ([4]; ex vivo, plasma diluted 1:100, after 3 mg/kg IV) [ng/mL] | average AUC∞ [5] [ng·h/mL] | mean clearance rate [5] [mL/min/kg] | mean terminal half-life [5] [h] | mean volume of distribution [5] [L/kg] | bioavailability of dose, based on AUC [6] | binding to rat C5 [7] | IC50 [8] [nM]
1 | CCC[C@H](NC(=O)[C@@H]1CSCc2ccc(cc2)CSC[C@H](NC(=O)[C@H](CCC)NC(C)=O)C(=O)N[C@@H](c2ccccc2)C(=O)N[C@@H]([C@@H](C)O)C(=O)N[C@@H](Cc2c[nH]c3ncccc23)C(=O)N[C@@H](CCC(=O)O)C(=O)N[C@@H](Cc2ccc(O)cc2)C(=O)N(C)[C@@H](CO)C(=O)N[C@@H](Cc2c[nH]cn2)C(=O)N1)C(N)=O [Compound R3050, [pXylyl(2,10)]Ac-Nvl-C-Phg-T-azaTrp-E-Y-(N—Me)S-H-C-Nvl-NH2] (Ac-[Nva]C[Phg]T[Trp(7-aza)]EY[NMeS]HC[Nva]-NH2; linker 2-10 via pXylylene) | highly stable | 100 | relatively strong affinity |  |  |  |  |  |  |  |  |  | 
2 | CCC[C@H](NC(=O)[C@@H](NC(=O)[C@@H]1CCCN1C(=O)[C@H](Cc1ccc(O)cc1)NC(=O)[C@H](CCC(=O)O)NC(=O)[C@H](Cc1c[nH]c2ncccc12)NC(=O)[C@H](Cc1ccc(O)cc1)NC(=O)[C@@H](NC(=O)[C@H](CC(=O)O)NC(=O)[C@@H]1CSCc2cccc(c2)CSC[C@H](NC(C)=O)C(=O)N[C@@H](C(C)C)C(=O)N[C@@H](CCC(=O)O)C(=O)N[C@@H](CCCNC(=N)N)C(=O)N[C@@H](Cc2ccccc2)C(=O)N1)C(C)(C)C)C1CCCCC1)C(N)=O [Compound R3152, [mXylyl(1,6)]Ac-C-V-E-R-F-C-D-Tbg-Y-azaTrp-E-Y-P-Chg-Nvl-NH2] |  |  |  | very little inhibitory activity | 48 | > 200 | 23319 ± 2120 | 2.15 ± 0.203 | 10.9 ± 0.8 | 1.49 ± 0.152 | approximately 65% | do not bind | 
3 | CCC[C@H](NC(=O)[C@@H](NC(=O)[C@@H]1CCCN1C(=O)[C@H](Cc1ccc(O)cc1)NC(=O)[C@H](CCC(=O)O)NC(=O)[C@H](Cc1c[nH]c2ncccc12)NC(=O)[C@H](Cc1ccc(O)cc1)NC(=O)[C@@H](NC(=O)[C@H](CC(=O)O)NC(=O)[C@@H]1CSCc2cccc(c2)CSC[C@H](NC(C)=O)C(=O)N[C@@H](C(C)C)C(=O)N[C@@H](CCC(=O)O)C(=O)N[C@@H](CCCNC(=N)N)C(=O)N[C@@H](Cc2ccccc2)C(=O)N1)C(C)(C)C)C1CCCCC1)C(=O)O [Compound R3201, [mXylyl(1,6)]Ac-C-V-E-R-F-C-D-Tbg-Y-azaTrp-E-Y-P-Chg-Nvl] |  |  |  |  |  |  |  |  |  |  |  | do not bind | 7.7
